Assay results taken from patent publication US10689400B2, “Macrocycle kinase inhibitors” (Turning Point Therapeutics, Inc., priority 2016, dated 2020).

Legend:
BTK kinase = biological target: T1, BTK kinase (Homo sapiens, UniProt Q06187); assay: BTK biochemical kinase assay (radiometric; Eurofins KinaseProfiler / Reaction Biology); details: ATP 10 μM
T1 construct: purchased Eurofins (KinaseProfiler) / Reaction Biology Corporation
Experimental: The Compounds were tested against BTK kinase using the Eurofins standard KinaseProfiler™ assays and following the relevant standard operating procedures. Protein kinases were assayed in a radiometric format. Full details of the assay for each kinase are available on the Eurofins website, or in the accompanying protocol document. All compounds were prepared to a working stock of 50× final assay concentration in 100% DMSO. Where appropriate, more concentrated stocks were diluted manually to 50× using 100% DMSO. Compounds supplied as powders were reconstituted to a 10 mM stock in 100% DMSO before further dilution to 50×. The required volume of the 50× stock of test compound was added to the assay well, before a reaction mix containing the enzyme and substrate was added. The reaction was initiated by the addition of ATP at the selected 10 μM concentration. There was no pre-incubation of the compound with the enzyme/substrate mix prior to ATP addition. For IC50 determinations, data are analysed using XLFit version 5.3 (ID Business Solutions). Sigmoidal dose-response (variable slope) curves are fit based on the mean result for each test concentration using non-linear regression analysis. Where the top and/or bottom of the curve fall >10% out with 100 and 0, respectively, either or both of these limits may be constrained at 100 and 0, provided that the QC criterion on R^2 is met.
The BTK biochemical kinase assay was also performed at Reaction Biology Corporation (www.reactionbiology.com, Malvern, Pa.) following the procedures described in the reference (Anastassiadis T, et al Nat Biotechnol. 2011, 29, 1039). Specific kinase/substrate pairs along with required cofactors were prepared in reaction buffer; 20 mM Hepes pH 7.5, 10 mM MgCl2, 1 mM EGTA, 0.02% Brij35, 0.02 mg/ml BSA, 0.1 mM Na3VO4, 2 mM DTT, 1% DMSO (for specific details of individual kinase reaction components see Supplementary Table 2). Compounds were delivered into the reaction, followed ˜20 minutes later by addition of a mixture of ATP (Sigma, St. Louis Mo.) and ^33P ATP (Perkin Elmer, Waltham Mass.) to a final concentration of 10 μM. Reactions were carried out at room temperature for 120 min, followed by spotting of the reactions onto P81 ion exchange filter paper (Whatman Inc., Piscataway, N.J.). Unbound phosphate was removed by extensive washing of filters in 0.75% phosphoric acid. […] IC50 values and curve fits were obtained using Prism (GraphPad Software).

[1] = system: KM12 cells (harboring endogenous TPM3-TRKA fusion gene); assay: KM12 cell proliferation assay (CellTiter-Glo, 72 hours); format: cell-based; details: Homo sapiens, KM12 colorectal cell line, 72 hours incubation
Experimental: (§1) Colorectal cell lines KM 12 (harboring endogenous TPM3-TRKA fusion gene) cells were cultured in DMEM medium, supplemented with 10% fetal bovine serum and 100 U/mL of penicillin/streptomycin. 5000 cells were seeded in 384 well white plate for 24 hours before compounds treatment. Cell proliferation was measured using CellTiter-Glo luciferase-based ATP detection assay (Promega) following the manufactures's protocol after 72 hours incubation. IC50 determinations were performed using GraphPad Prism software (GraphPad, Inc., San Diego, Calif.).
as §1, with “Alternatively: Colorectal” for “Colorectal”, “line KM12” for “lines KM 12”, “DMEM medium, supplemented with 10% fetal bovine serum and 100 U/mL of penicillin/streptomycin. Essential thrombocythemia cell line SET-2 cells (harboring endogenous JAK2 V618F point mutation) were cultured in RPMI” for “DMEM”

[2] = system: SET-2 cells (harboring endogenous JAK2 V618F point mutation); assay: SET-2 cell proliferation assay (CellTiter-Glo, 72 hours); format: cell-based; details: Homo sapiens, SET-2 essential thrombocythemia cell line, 72 hours incubation, read-out: Cell Proliferation JAK2 SET2 Cell IC50
Experimental: as §1, with “Alternatively: Colorectal” for “Colorectal”, “line KM12” for “lines KM 12”, “DMEM medium, supplemented with 10% fetal bovine serum and 100 U/mL of penicillin/streptomycin. Essential thrombocythemia cell line SET-2 cells (harboring endogenous JAK2 V618F point mutation) were cultured in RPMI” for “DMEM”

T1 sequence (Q06187 whole entry): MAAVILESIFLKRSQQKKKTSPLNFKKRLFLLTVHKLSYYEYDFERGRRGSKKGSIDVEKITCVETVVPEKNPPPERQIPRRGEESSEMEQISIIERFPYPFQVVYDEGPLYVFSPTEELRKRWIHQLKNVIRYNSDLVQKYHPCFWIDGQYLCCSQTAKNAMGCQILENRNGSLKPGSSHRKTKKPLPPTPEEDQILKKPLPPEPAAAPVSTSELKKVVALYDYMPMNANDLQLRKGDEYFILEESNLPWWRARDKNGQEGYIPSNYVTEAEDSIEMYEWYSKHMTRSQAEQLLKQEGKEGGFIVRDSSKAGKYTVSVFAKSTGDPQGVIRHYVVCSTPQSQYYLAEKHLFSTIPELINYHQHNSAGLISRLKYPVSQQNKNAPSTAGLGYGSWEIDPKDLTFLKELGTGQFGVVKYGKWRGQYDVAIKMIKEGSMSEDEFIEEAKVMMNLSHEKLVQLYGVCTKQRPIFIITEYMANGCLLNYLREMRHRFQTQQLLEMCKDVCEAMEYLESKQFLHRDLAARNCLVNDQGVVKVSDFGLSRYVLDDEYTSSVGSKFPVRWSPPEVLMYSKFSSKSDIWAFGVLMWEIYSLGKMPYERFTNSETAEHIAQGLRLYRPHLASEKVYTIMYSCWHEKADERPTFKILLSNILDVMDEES

| SMILES | IC50 (BTK kinase) [nM] | IC50 [1] [nM] | IC50 [2] [nM] |
| --- | --- | --- | --- |
| CC(C)N1Cc2cc(F)cc(Cl)c2OCCNC(=O)c2cnn3ccc1nc23 [Compound 10, 9-chloro-11-fluoro-14-(propan-2-yl)-6,7,13,14-tetrahydro-1,15-ethenopyrazolo[4,3-f][1,4,8,10]benzoxatriazacyclotridecin-4(5H)-one] | 179 | 0.1 | 1480 |
| C[C@H]1Nc2ccn3ncc(c3n2)C(=O)NCCOc2c(O)cc(F)cc21 [Compound 17, (13R)-11-fluoro-9-hydroxy-13-methyl-6,7,13,14-tetrahydro-1,15-ethenopyrazolo[4,3-f][1,4,8,10]benzoxatriazacyclotridecin-4(5H)-one] | 48 | 15.4 | 600 |
| C[C@H]1CNC(=O)c2cnn3ccc(nc23)N[C@H](C)c2cc(F)cc(Br)c2O1 [Compound 7, (7S,13R)-9-bromo-11-fluoro-7,13-dimethyl-6,7,13,14-tetrahydro-1,15-ethenopyrazolo[4,3-f][1,4,8,10]benzoxatriazacyclotridecin-4(5H)-one] |  | 0.2 | 6.7 |
| C[C@H]1CNC(=O)c2cnn3ccc(nc23)N[C@H](C)c2c(ccc(F)c2F)O1 [Compound 11, (7S,13R)-11,12-difluoro-7,13-dimethyl-6,7,13,14-tetrahydro-1,15-ethenopyrazolo[4,3-f][1,4,8,10]benzoxatriazacyclotridecin-4(5H)-one] | 14.2 | 0.2 | 3.9 |
| C[C@H]1Nc2ccn3ncc(c3n2)C(=O)NCCOc2c(-c3cnn(C)c3)cc(F)cc21 [Compound 19, (13R)-11-fluoro-13-methyl-9-(1-methyl-1H-pyrazol-4-yl)-6,7,13,14-tetrahydro-1,15-ethenopyrazolo[4,3-f][1,4,8,10]benzoxatriazacyclotridecin-4(5H)-one] | 476 | 53.4 | 1000 |
| C[C@H]1CNC(=O)c2cnn3ccc(nc23)N[C@H](C)c2cc(F)cc(-c3cnn(C)c3)c2O1 [Compound 18, (7S,13R)-11-fluoro-7,13-dimethyl-9-(1-methyl-1H-pyrazol-4-yl)-6,7,13,14-tetrahydro-1,15-ethenopyrazolo[4,3-f][1,4,8,10]benzoxatriazacyclotridecin-4(5H)-one] | 60 | 23.5 | 600 |
| COc1cc(F)cc2c1OCCNC(=O)c1cnn3ccc(nc13)N[C@@H]2C [Compound 16, (13R)-11-fluoro-9-methoxy-13-methyl-6,7,13,14-tetrahydro-1,15-ethenopyrazolo[4,3-f][1,4,8,10]benzoxatriazacyclotridecin-4(5H)-one] | 450 | 13.9 | 300 |
| C[C@H]1Nc2ccn3ncc(c3n2)C(=O)NC[C@@H](CO)Oc2c(F)cc(F)cc21 [Compound 3, (7S,13R)-9,11-difluoro-7-(hydroxymethyl)-13-methyl-6,7,13,14-tetrahydro-1,15-ethenopyrazolo[4,3-f][1,4,8,10]benzoxatriazacyclotridecin-4(5H)-one] |  | 21.5 | 15.5 |
| Cc1nn(C)cc1-c1cc(F)cc2c1O[C@@H](C)CNC(=O)c1cnn3ccc(nc13)N[C@@H]2C [Compound 20, (7S,13R)-9-(1,3-dimethyl-1H-pyrazol-4-yl)-11-fluoro-7,13-dimethyl-6,7,13,14-tetrahydro-1,15-ethenopyrazolo[4,3-f][1,4,8,10]benzoxatriazacyclotridecin-4(5H)-one] | 238 | 6.4 |  |
| C[C@H]1CNC(=O)c2cnn3ccc(nc23)N[C@H](C)c2cc(F)cc(F)c2O1 [Compound 1, (7S,13R)-9,11-difluoro-7,13-dimethyl-6,7,13,14-tetrahydro-1,15-ethenopyrazolo[4,3-f][1,4,8,10]benzoxatriazacyclotridecin-4(5H)-one] | 2.47 | 0.2 | 120 |
| C[C@H]1CNC(=O)c2cnn3ccc(nc23)N[C@H](C)c2cc(F)cc(Cl)c2O1 [Compound 8, (7S,13R)-9-chloro-11-fluoro-7,13-dimethyl-6,7,13,14-tetrahydro-1,15-ethenopyrazolo[4,3-f][1,4,8,10]benzoxatriazacyclotridecin-4(5H)-one] | 3.97 | 0.2 | 83.7 |
| CC(C)N1Cc2cc(F)cc(F)c2OCCNC(=O)c2cnn3ccc1nc23 [Compound 9, 9,11-difluoro-14-(propan-2-yl)-6,7,13,14-tetrahydro-1,15-ethenopyrazolo[4,3-f][1,4,8,10]benzoxatriazacyclotridecin-4(5H)-one] | 22.2 | 5.2 | 132 |
| C[C@H]1Nc2ccn3ncc(c3n2)C(=O)NCCOc2c(Br)cc(F)cc21 [Compound 5, (13R)-9-bromo-11-fluoro-13-methyl-6,7,13,14-tetrahydro-1,15-ethenopyrazolo[4,3-f][1,4,8,10]benzoxatriazacyclotridecin-4(5H)-one] | 60 | 5 | 200 |
| CC(C)Oc1cc(F)cc2c1OCCNC(=O)c1cnn3ccc(nc13)N[C@@H]2C [Compound 15, (13R)-11-fluoro-13-methyl-9-[(propan-2-yl)oxy]-6,7,13,14-tetrahydro-1,15-ethenopyrazolo[4,3-f][1,4,8,10]benzoxatriazacyclotridecin-4(5H)-one] | 154 | 2 | 500 |
| C[C@H]1Nc2ccn3ncc(c3n2)C(=O)NCCOc2c(Cl)cc(F)cc21 [Compound 6, (13R)-9-chloro-11-fluoro-13-methyl-6,7,13,14-tetrahydro-1,15-ethenopyrazolo[4,3-f][1,4,8,10]benzoxatriazacyclotridecin-4(5H)-one] | 64.4 | 4.2 | 78.2 |
| CC(C)N1Cc2c(ccc(F)c2Cl)OCCNC(=O)c2cnn3ccc1nc23 [Compound 13, 12-chloro-11-fluoro-14-(propan-2-yl)-6,7,13,14-tetrahydro-1,15-ethenopyrazolo[4,3-f][1,4,8,10]benzoxatriazacyclotridecin-4(5H)-one] | 5.54 | 300 | 10000 |
| C[C@H]1CNC(=O)c2cnn3ccc(nc23)N[C@H](C)c2c(ccc(F)c2Cl)O1 [Compound 2, (7S,13R)-12-chloro-11-fluoro-7,13-dimethyl-6,7,13,14-tetrahydro-1,15-ethenopyrazolo[4,3-f][1,4,8,10]benzoxatriazacyclotridecin-4(5H)-one] | 2.53 | 5.1 | 3000 |
| CC(C)N1Cc2cc(F)cc(F)c2OCCCNC(=O)c2cnn3ccc1nc23 [Compound 12, 10,12-difluoro-15-(propan-2-yl)-5,6,7,8,14,15-hexahydro-4H-1,16-ethenopyrazolo[4,3-g][1,5,9,11]benzoxatriazacyclotetradecin-4-one] | 9.67 | 0.2 | 5000 |
| C[C@H]1Nc2ccn3ncc(c3n2)C(=O)NC[C@@H](CO)Oc2ccc(F)c(Cl)c21 [Compound 4, (7S,13R)-12-chloro-11-fluoro-7-(hydroxymethyl)-13-methyl-6,7,13,14-tetrahydro-1,15-ethenopyrazolo[4,3-f][1,4,8,10]benzoxatriazacyclotridecin-4(5H)-one] |  | 45.4 | 3000 |
| CC(C)N1Cc2c(ccc(F)c2Cl)O[C@@H](C)CNC(=O)c2cnn3ccc1nc23 [Compound 14, (7S)-12-chloro-11-fluoro-7-methyl-14-(propan-2-yl)-6,7,13,14-tetrahydro-1,15-ethenopyrazolo[4,3-f][1,4,8,10]benzoxatriazacyclotridecin-4(5H)-one] | 0.536 | 0.2 | 1500 |
